Common to all, as to type: biochemical
The target of experiment [1] is T1, CDKs and other kinases (Homo sapiens, UniProt P24941).
T1 construct: other: CDK2A; residual activity (%) at 10 μM CDK2A; compound at 10 μM
In words: Radiometric kinase assay (Eurofins Pharma Discovery or Reaction Biology Corporation Kinase Profiler). Particulars: CDK2A; for remaining activity at 10 µM: compound at 10 μM, read-out: residual activity (%) at 10 μM CDK2A; for Ki: read-out: CDK inhibition, Ki (μM) CDK2A. How it is done:
(§1) Eurofins Pharma Discovery or Reaction Biology Corporation Kinase Profiler services were used to measure inhibition of CDKs and other kinases by radiometric assay. Inhibition of CDK4/D1, CDK6/D3 and CDK9/T1 were also determined in-house using ADP Glo Kinase assays (Promega Corporation, Madison, USA). Briefly, the kinase reaction for CDK4/D1 and CDK6/D3 was performed with kinase reaction buffer ([…] Tris base pH 7.5, 20 mM MgCl2, 0.4 mM DTT), 0.1 mg/ml BSA and RB-CTF substrate (retinoblastoma protein 1 C-terminal fraction). For CDK9/CyclinT1, the kinase reaction was performed with standard assay buffer and Kinase Dilution Buffer and RBER-IRStide substrate. Serial dilutions of 1:3 were prepared for test compounds for 10 concentrations (from 10 μM to 0.5 nM). The kinase reactions were started by addition of ATP, incubated for 40 min at 37° C. and then stopped by adding 10 μL of ADP Glo reagent. After incubation at room temperature in the dark for 40 min, 20 μL of kinase detection reagent was added per well and incubated for 40 min. Luminescence was measured using an EnVision Multilabel plate reader (PerkinElmer, Buckinghamshire, UK). Positive and negative controls were performed in the presence and absence of CDK kinases, respectively. Half-maximal inhibition (IC50) values were calculated using a 4-parameter logistic non-linear regression model with Graphpad prism (Version 6.0). Apparent inhibition constants (Ki) values were calculated from Km (ATP) and IC50 values for the respective kinases.

The target of experiment [2] is T2, CDKs and other kinases (Homo sapiens, UniProt P06493).
T2 construct: other: CDK1B; residual activity (%) at 10 μM CDK1B; compound at 10 μM
T2 sequence (P06493 whole entry): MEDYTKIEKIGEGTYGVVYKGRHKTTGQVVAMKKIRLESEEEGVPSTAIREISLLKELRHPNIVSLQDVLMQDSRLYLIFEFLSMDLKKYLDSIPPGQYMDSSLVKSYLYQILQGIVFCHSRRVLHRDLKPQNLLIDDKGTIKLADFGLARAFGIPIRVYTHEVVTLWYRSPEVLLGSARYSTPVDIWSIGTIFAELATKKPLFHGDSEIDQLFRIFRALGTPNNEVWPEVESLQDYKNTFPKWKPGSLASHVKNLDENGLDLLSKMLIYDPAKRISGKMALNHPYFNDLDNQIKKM
Described as above. The settings on record: CDK1B; for remaining activity at 10 µM: compound at 10 μM, read-out: residual activity (%) at 10 μM CDK1B; for Ki: read-out: CDK inhibition, Ki (μM) CDK1B. The procedure:
as §1

In experiment [3] the target is T3, CDKs and other kinases (Homo sapiens, UniProt P50613).
T3 construct: other: CDK7H; residual activity (%) at 10 μM CDK7H; compound at 10 μM
T3 sequence (P50613 whole entry): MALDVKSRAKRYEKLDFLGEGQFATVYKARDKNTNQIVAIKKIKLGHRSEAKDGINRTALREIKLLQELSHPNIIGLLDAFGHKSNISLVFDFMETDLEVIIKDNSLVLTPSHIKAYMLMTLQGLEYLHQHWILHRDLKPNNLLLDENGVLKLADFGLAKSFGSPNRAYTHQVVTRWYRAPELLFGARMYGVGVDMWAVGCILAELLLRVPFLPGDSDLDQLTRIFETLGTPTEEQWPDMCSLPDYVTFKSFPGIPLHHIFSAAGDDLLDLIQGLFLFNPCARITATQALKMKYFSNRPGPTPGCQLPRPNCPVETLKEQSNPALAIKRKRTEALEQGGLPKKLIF
The description is as above. The settings on record: CDK7H; for remaining activity at 10 µM: compound at 10 μM, read-out: residual activity (%) at 10 μM CDK7H; for Ki: read-out: CDK inhibition, Ki (μM) CDK7H. The procedure: as §1

In experiment [4] the target is CDK9/T1 (Homo sapiens, UniProt P50750). Put plainly: ADP Glo Kinase assay CDK9/T1. Particulars: CDK9T1; read-out: CDK inhibition, Ki (μM) CDK9T1. The procedure: as §1
Sequence of CDK9/T1 (P50750 whole entry): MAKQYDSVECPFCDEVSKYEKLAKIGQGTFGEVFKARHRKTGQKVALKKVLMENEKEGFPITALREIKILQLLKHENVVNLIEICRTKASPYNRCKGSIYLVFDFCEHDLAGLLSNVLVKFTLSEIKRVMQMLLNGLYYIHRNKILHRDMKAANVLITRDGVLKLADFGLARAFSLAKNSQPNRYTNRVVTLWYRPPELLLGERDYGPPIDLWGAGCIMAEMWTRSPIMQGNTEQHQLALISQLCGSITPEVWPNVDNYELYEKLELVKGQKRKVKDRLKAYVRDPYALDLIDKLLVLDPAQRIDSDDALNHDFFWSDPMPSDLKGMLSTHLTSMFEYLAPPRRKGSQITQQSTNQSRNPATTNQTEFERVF
Sequence of CDK9/T1 (O60563 whole entry partner): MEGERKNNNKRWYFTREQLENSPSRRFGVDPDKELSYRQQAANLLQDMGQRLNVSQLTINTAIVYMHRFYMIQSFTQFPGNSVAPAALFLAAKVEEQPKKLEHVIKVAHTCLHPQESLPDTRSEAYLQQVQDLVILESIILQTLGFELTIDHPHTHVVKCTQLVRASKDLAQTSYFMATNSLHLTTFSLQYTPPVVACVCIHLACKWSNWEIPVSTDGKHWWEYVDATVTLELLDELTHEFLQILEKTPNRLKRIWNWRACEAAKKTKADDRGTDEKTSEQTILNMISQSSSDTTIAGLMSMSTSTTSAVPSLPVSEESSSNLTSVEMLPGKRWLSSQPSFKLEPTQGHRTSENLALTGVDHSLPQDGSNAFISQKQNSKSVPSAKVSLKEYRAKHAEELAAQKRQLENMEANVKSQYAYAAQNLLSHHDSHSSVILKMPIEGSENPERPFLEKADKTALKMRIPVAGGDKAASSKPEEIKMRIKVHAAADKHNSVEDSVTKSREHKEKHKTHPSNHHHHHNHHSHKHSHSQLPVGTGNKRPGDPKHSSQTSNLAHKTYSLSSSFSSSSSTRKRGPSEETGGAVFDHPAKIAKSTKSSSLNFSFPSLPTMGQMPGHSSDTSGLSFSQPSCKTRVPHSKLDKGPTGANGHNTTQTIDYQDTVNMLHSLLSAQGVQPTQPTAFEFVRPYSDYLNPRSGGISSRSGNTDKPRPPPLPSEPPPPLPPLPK
For experiment [5], the target named is CDK4/D1 (Homo sapiens, UniProt P11802). In words: ADP Glo Kinase assay CDK4/D1. Particulars: CDK4D1; compound at 10 μM; read-out: residual activity (%) at 10 μM CDK4D1. The procedure:
as §1
A general note: ADP-Glo turns the ADP formed in a reaction into a luminescent signal.

The structures appear in SMILES notation.

Sequence of CDK4/D1 (P11802 whole entry): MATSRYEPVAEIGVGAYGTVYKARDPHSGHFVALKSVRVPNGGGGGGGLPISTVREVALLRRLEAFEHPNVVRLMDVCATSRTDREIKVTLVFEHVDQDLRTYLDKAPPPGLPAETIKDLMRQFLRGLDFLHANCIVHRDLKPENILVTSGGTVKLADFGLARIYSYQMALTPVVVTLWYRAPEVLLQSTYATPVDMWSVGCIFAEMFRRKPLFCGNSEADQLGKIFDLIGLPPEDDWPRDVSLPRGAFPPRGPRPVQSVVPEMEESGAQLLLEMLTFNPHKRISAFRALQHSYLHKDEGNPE
Sequence of CDK4/D1 (P24385 whole entry partner): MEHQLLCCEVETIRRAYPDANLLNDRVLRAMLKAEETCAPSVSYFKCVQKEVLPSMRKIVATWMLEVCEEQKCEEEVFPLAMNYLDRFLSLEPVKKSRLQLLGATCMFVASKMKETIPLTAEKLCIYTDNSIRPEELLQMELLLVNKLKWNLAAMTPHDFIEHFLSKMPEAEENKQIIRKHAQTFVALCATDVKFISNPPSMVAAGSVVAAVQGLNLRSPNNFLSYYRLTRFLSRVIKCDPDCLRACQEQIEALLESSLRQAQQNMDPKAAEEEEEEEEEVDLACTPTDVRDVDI

With `Cc1cnc(N[C@H]2CC[C@H](N)CC2)nc1-c1cnc2cc(F)c(-c3ccccc3)cn12` [Compound 159, (1r,4r)-N^1-(4-(7-Fluoro-6-phenylimidazo[1,2-a]pyridin-3-yl)-5-methylpyrimidin-2-yl)cyclohexane-1,4-diamine], the remaining activity at 10 µM is 11% in experiment [1], 31% in experiment [2], 20% in experiment [3] and 43% in experiment [5]. Moreover, the Ki in experiment [4] is 0.061 µM.
For `Cc1cnc(N[C@H]2CC[C@H](N)CC2)nc1-c1cnc2ccc(Nc3ccc(F)nc3)cn12` [Compound 123, (1r,4r)-N^1-(4-(6-((6-Fluoropyridin-3-yl)amino)imidazo [1,2-a]pyridin-3-yl)-5-methylpyrimidin-2-yl)cyclohexane-1,4-diamine], the Ki stood at 0.3 µM in experiment [1], 1.53 µM in experiment [2], 0.89 µM in experiment [3] and 0.011 µM in experiment [4]. Further, in experiment [5], the remaining activity at 10 µM was determined as 31%.
Turning to `Fc1cnc(NC2CCNCC2)nc1-c1cnc2cc(-c3ccccc3)ccn12` [Compound 170, 5-Fluoro-4-(7-phenylimidazo[1,2-a]pyridin-3-yl)-N-(piperidin-4-yl)pyrimidin-2-amine], the remaining activity at 10 µM in experiment [1] was determined as 7%; in experiment [3], 18%; in experiment [5], 5%. Besides, the Ki in experiment [4] was more than 5 µM.
For `Cc1cnc(N[C@H]2CC[C@H](N)CC2)nc1-c1cnc2ccc(Nc3ccncc3)cn12` [Compound 134, (1r,4r)-N^1-(5-Methyl-4-(6-(pyridin-4-ylamino)imidazo [1,2-a]pyridin-3-yl)pyrimidin-2-yl)cyclohexane-1,4-diamine], the remaining activity at 10 µM in experiment [1] amounted to 22%; in experiment [2] it was 43%; in experiment [3], 28%; in experiment [5], 11%. Besides, the Ki in experiment [4] was found to be 0.12 µM.
For `O[C@H]1CC[C@H](Nc2ncc(Cl)c(-c3cnc4ccc(-c5ccc(F)cc5)cn34)n2)CC1` [Compound 165, (1r,4r)-4-((5-Chloro-4-(6-(4-fluorophenyl)imidazo[1,2-a]pyridin-3-yl)pyrimidin-2-yl)amino)cyclohexan-1-ol], the remaining activity at 10 µM was 51% in experiment [1], 24% in experiment [3] and 61% in experiment [5]. Besides, the inhibition constant (Ki) in experiment [4] was 0.93 µM.
In the case of `COCCN[C@H]1CC[C@H](Nc2ncc(C)c(-c3cnc4ccc(-c5ccccc5)cn34)n2)CC1` [Compound 129, (1r,4r)-N^1-(2-Methoxyethyl)-N^4-(5-methyl-4-(6-phenylimidazo[1,2-a]pyridin-3-yl)pyrimidin-2-yl) cyclohexane-1,4-diamine], the remaining activity at 10 µM in experiment [1] was found to be 0%; in experiment [2] it was 42%; in experiment [3] it was 18%; in experiment [5] it was 32%. Besides, the Ki in experiment [4] is 0.12 µM.
As to `COc1ccc(Nc2ccc3ncc(-c4nc(N[C@H]5CC[C@H](N)CC5)ncc4C)n3c2)cn1` [Compound 127, (1r,4r)-N^1-(4-(6-((6-Methoxypyridin-3-yl)amino)imidazo [1,2-a]pyridin-3-yl)-5-methylpyrimidin-2-yl)cyclohexane-1,4-diamine], the remaining activity at 10 µM in experiment [1] is 0%; in experiment [2], 34%; in experiment [3] it was 39%; in experiment [5], 32%. Further, the Ki in experiment [4] was 0.045 µM.
On to `COc1ccc(-c2ccc3ncc(-c4nc(N[C@H]5CC[C@H](O)CC5)ncc4Cl)n3c2)cn1` [Compound 167, (1r,4r)-4-((5-Chloro-4-(6-(6-methoxypyridin-3-yl)imidazo[1,2-a]pyridin-3-yl)pyrimidin-2-yl)amino) cyclohexan-1-ol], for which the values for the remaining activity at 10 µM in experiment [1], in experiment [3] and in experiment [5] were 4%, 49% and 66%, respectively. Moreover, the Ki in experiment [4] turned out to be 0.49 µM.
With `CN[C@H]1CC[C@H](Nc2ncc(C)c(-c3cnc4ccc(-c5ccccc5)cn34)n2)CC1` [Compound 133, (1r,4r)-N^1-Methyl-N^4-(5-methyl-4-(6-phenylimidazo[1,2-a]pyridin-3-yl)pyrimidin-2-yl)cyclohexane-1,4-diamine], the remaining activity at 10 µM in experiment [1] turned out to be 40%; in experiment [2], 22%; in experiment [3], 10%; in experiment [5], 60%. Also, in experiment [4], the Ki was 0.14 µM.
In the case of `CS(=O)(=O)N1CCC(Nc2ncc(F)c(-c3cnc4cc(-c5ccccc5)ccn34)n2)CC1` [Compound 171, 5-Fluoro-N-(1-(methylsulfonyl)piperidin-4-yl)-4-(7-phenylimidazo[1,2-a]pyridin-3-yl)pyrimidin-2-amine], the remaining activity at 10 µM in experiment [1] is 35%; in experiment [3], 65%; in experiment [5] it was 47%. The Ki in experiment [4] was more than 5 µM.
Taken in the same sequence, the figures for `O[C@H]1CC[C@H](Nc2ncc(Cl)c(-c3cnc4ccc(-c5cccnc5)cn34)n2)CC1` [Compound 166, (1r,4r)-4-((5-Chloro-4-(6-(pyridin-3-yl)imidazo[1,2-a]pyridin-3-yl)pyrimidin-2-yl)amino)cyclohexan-1-ol] were 8%, 33%, 54% and 1.28 µM.
On to `Fc1cnc(NC2CCN(CC3CC3)CC2)nc1-c1cnc2ccc(-c3ccccc3)cn12` [Compound 145, N-(1-(Cyclopropylmethyl)piperidin-4-yl)-5-fluoro-4-(6-phenylimidazo[1,2-a]pyridin-3-yl)pyrimidin-2-amine], for which the remaining activity at 10 µM in experiment [1] was 22%; in experiment [5], 41%. The Ki turned out to be 0.222 µM in experiment [2], 0.199 µM in experiment [3] and 0.402 µM in experiment [4].
On to `CNC(=O)N[C@H]1CC[C@H](Nc2ncc(C)c(-c3cnc4ccc(Nc5cncnc5)cn34)n2)CC1` [Compound 172, 1-Methyl-3-((1r,4r)-4-((5-methyl-4-(6-(pyrimidin-5-ylamino)imidazo[1,2-a]pyridin-3-yl)pyrimidin-2-yl)amino)cyclohexyl)urea], for which the remaining activity at 10 µM in experiment [1] was 2%; in experiment [3], 21%; in experiment [5] it was 6%. Further, in experiment [4], the Ki was found to be 0.005 µM.
As for `Cc1cnc(N[C@H]2CC[C@H](N3CCC3)CC2)nc1-c1cnc2ccc(Nc3cncnc3)cn12` [Compound 141, 3-(2-(((1r,4r)-4-(Azetidin-1-yl)cyclohexyl)amino)-5-methylpyrimidin-4-yl)-N-(pyrimidin-5-yl)imidazo [1,2-a]pyridin-6-amine], the Ki in experiment [1] was 0.064 µM; in experiment [2], 0.532 µM; in experiment [4], 0.011 µM. The remaining activity at 10 µM was found to be 30% in experiment [3] and 15% in experiment [5].
Consider `CCS(=O)(=O)N1CCC(Nc2ncc(F)c(-c3cnc4ccc(-c5ccccc5)cn34)n2)CC1` [Compound 163, N-(1-(Ethylsulfonyl)piperidin-4-yl)-5-fluoro-4-(6-phenylimidazo[1,2-a]pyridin-3-yl)pyrimidin-2-amine], for which the results for the remaining activity at 10 µM in experiment [1], in experiment [3] and in experiment [5] were 0%, 5% and 61%, respectively. The inhibition constant Ki in experiment [4] worked out at 4.57 µM.
Taken in the same sequence, the figures for `CNC(=O)N[C@H]1CC[C@H](Nc2ncc(C)c(-c3cnc4ccc(-c5ccccc5)cn34)n2)CC1` [Compound 169, 1-Methyl-3-((1r,4r)-4-((5-methyl-4-(6-phenylimidazo [1,2-a]pyridin-3-yl)pyrimidin-2-yl)amino)cyclohexyl) urea] were 31%, 35%, 81% and 1.88 µM.
Taken in the same sequence, the figures for `Cc1cnc(NC2CCC(N3CCNC(=O)C3)CC2)nc1-c1cnc2ccc(Nc3cncnc3)cn12` (stereo not shown) [Compound 168, 4-(4-((5-Methyl-4-(6-(pyrimidin-5-ylamino)imidazo [1,2-a]pyridin-3-yl)pyrimidin-2-yl)amino)cyclohexyl) piperazin-2-one] were 11%, 55%, 22% and 0.181 µM.

For orientation: Ki means the equilibrium dissociation constant of an inhibitor or competing ligand from its target.
